In PMC12794142 (2025):

Legend:
[1] = test system: AT11 (DNA, G4) TGGTGGTGGTTGTTGTGGTGGTGGTGGT; experiment: CD melting at 262 nm; conditions: 70 mM KCl, 20 mM potassium phosphate, pH 7.0, 2 μM DNA, 20 μM ligand
[2] = test system: AT11 (DNA, G4) TGGTGGTGGTTGTTGTGGTGGTGGTGGT; experiment: 1H NMR titration, NOESY; conditions: 70 mM KCl, 20 mM potassium phosphate; pH 7.0, 90%/10% H2O/D2O, DMSO up to 3%
[3] = test system: AT11 (DNA, G4) TGGTGGTGGTTGTTGTGGTGGTGGTGGT; experiment: fluorescence titration (ligand intrinsic emission); conditions: 70 mM KCl, 20 mM potassium phosphate; for K d: per site
[4] = test system: AT11 (DNA, G4) TGGTGGTGGTTGTTGTGGTGGTGGTGGT; experiment: 1H NMR titration; conditions: 70 mM KCl, 20 mM potassium phosphate; pH 7.0, 90%/10% H2O/D2O; 3'-end G-quartet preferred

CC[C@H]1C[C@@H]2C[C@H]3c4[nH]c5ccc(OC)cc5c4CCN(C2)[C@@H]13
ΔT m [1]: +1 °C | binding [2]: yes | K d [3]: 2000 ± 400 nM

COc1ccc2c(c1O)-c1c3c(cc4c1[C@H](C2)N(C)CC4)OCO3
binding [4]: yes | ΔT m [1]: +1 °C | K d ([3]; pH 7.0, 20 °C, 2 μM ligand, average over multiple binding events): 1700 ± 300 nM

CN1Cc2c(ccc3c2OCO3)[C@@H]2[C@H]1c1cc3c(cc1C[C@@H]2O)OCO3
ΔT m [1]: +1 °C | binding [2]: yes | binding ([3]; pH 7.0, 20 °C, 2 μM ligand, alternating trend, not fittable): yes

COc1cc2c(cc1OC)-c1c3c(cc4c1[C@H](C2)N(C)CC4)OCO3
ΔT m ([1]; additional inflection at 87 °C): +3 °C | binding [2]: yes | K d ([3]; pH 7.0, 20 °C, 2 μM ligand): 1000 ± 700 nM
